# Laboratory results reported in patent publication US6737383B1, “Herbicidal oxadiazolidines” (priority 1999, dated 2004).
# Tests used:
# [1] = system: bedstraw; test: Test B pre/postemergence bedstraw; type: in vivo, Galium aparine; conditions: Preemergence
# Procedure, shortened: (§1)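 Herbicidal effect was estimated by eye on a ten-point control scale after plants spent twelve to sixteen days in a greenhouse following soil or foliar treatment. Foliar sprays targeted plants at one to four leaves; all doses were formulated in a non-phytotoxic solvent with surfactant.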
# [2] = system: blackgrass; test: Test B pre/postemergence blackgrass; type: in vivo, Alopecurus myosuroides; conditions: for Blackgrass plant response rating: scale of 0 to 10 where 0 is no effect and 10 is complete control
# Procedure, shortened: as §1
# [3] = system: surinam grass; test: Test B pre/postemergence surinam grass; type: in vivo, Brachiaria decumbens; conditions: for B. signalgrass plant response rating: scale of 0 to 10 where 0 is no effect and 10 is complete control
# Procedure, shortened: as §1
# [4] = system: cocklebur; test: Test B pre/postemergence cocklebur; type: in vivo, Xanthium strumarium; conditions: for Cocklebur plant response rating: scale of 0 to 10 where 0 is no effect and 10 is complete control
# Procedure, shortened: as §1
# [5] = system: corn; test: Test B pre/postemergence corn; type: in vivo, Zea mays; conditions: for Corn plant response rating: scale of 0 to 10 where 0 is no effect and 10 is complete control
# Procedure, shortened: as §1
# [6] = system: morningglory; test: Test B pre/postemergence morningglory; type: in vivo, Ipomoea hederacea; conditions: for Morningglory plant response rating: scale of 0 to 10 where 0 is no effect and 10 is complete control
# Procedure, shortened: as §1
# [7] = system: pigweed; test: Test B pre/postemergence pigweed; type: in vivo, Amaranthus retroflexus; conditions: for Redroot pigweed plant response rating: scale of 0 to 10 where 0 is no effect and 10 is complete control
# Procedure, shortened: as §1
# [8] = system: rape; test: Test B pre/postemergence rape; type: in vivo, Brassica napus; conditions: for Rape plant response rating: scale of 0 to 10 where 0 is no effect and 10 is complete control
# Procedure, shortened: as §1
# [9] = system: velvetleaf; test: Test B pre/postemergence velvetleaf; type: in vivo, Abutilon theophrasti; conditions: for Velvetleaf plant response rating: scale of 0 to 10 where 0 is no effect and 10 is complete control
# Procedure, shortened: as §1
# [10] = system: wheat; test: Test B pre/postemergence wheat; type: in vivo, Triticum aestivum; conditions: for Wheat plant response rating: scale of 0 to 10 where 0 is no effect and 10 is complete control
# Procedure, shortened: as §1
# [11] = system: wild oat; test: Test B pre/postemergence wild oat; type: in vivo, Avena fatua; conditions: for Wild oats plant response rating: scale of 0 to 10 where 0 is no effect and 10 is complete control
# Procedure, shortened: as §1
# [12] = system: purple nutsedge; test: Test B pre/postemergence purple nutsedge; type: in vivo, Cyperus rotundus; conditions: for Nutsedge plant response rating: scale of 0 to 10 where 0 is no effect and 10 is complete control
# Procedure, shortened: as §1
# [13] = system: rice; test: Test B flood test rice; type: in vivo, Oryza sativa
# Procedure, shortened: (§2)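 Read-out is a visual response score from 0 (no effect) to 10 (complete control), assigned by comparison with untreated controls. Treatment was applied at the 2-leaf stage, and plants stayed in the greenhouse for twelve to sixteen days before scoring.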
# [14] = system: smallflower flatsedge; test: Test B flood test smallflower flatsedge; type: in vivo, Cyperus difformis
# Procedure, shortened: as §2
# [15] = system: duck salad; test: Test B flood test duck salad; type: in vivo, Heteranthera limosa
# Procedure, shortened: as §2
# [16] = system: bamyardgrass; test: Test B flood test barnyardgrass; type: in vivo, Echinochloa crus-galli
# Procedure, shortened: as §2
# [17] = Postemergence, Rate 125 g/ha, scale 0 to 10, 0 is no effect, 10 is complete control
# [18] = Postemergence, Rate 250 g/ha, scale 0 to 10, 0 is no effect, 10 is complete control
# [19] = Preemergence, Rate 62 g/ha, scale 0 to 10 (0 no effect, 10 complete control)
# [20] = Rate 500 g/ha, Postemergence, scale 0 to 10, 0 no effect, 10 complete control
# [21] = Postemergence (flood test), Rate 125 g/ha, scale 0 to 10, 0 is no effect, 10 is complete control
# [22] = Rate 62 g/ha, Postemergence (flood test species), scale of 0 to 10 where 0 is no effect and 10 is complete control
# [23] = Rate 62 g/ha, flood test species, Pre-emergence, visual evaluation after twelve to sixteen days
# [24] = Rate 125 g/ha, Pre-emergence, flood test species, scale 0 to 10 where 0 is no effect and 10 is complete control
# [25] = Rate 250 g/ha, Pre-emergence, flood-test species, scale 0 to 10, 0 is no effect, 10 is complete control
# [26] = Rate 500 g/ha, listed under Postemergence (flood test species), scale 0 to 10, 0 no effect, 10 complete control
# [27] = Rate 500 g/ha, Pre-emergence, flood test species, scale 0 to 10 (0 no effect, 10 complete control)
# [28] = flood test species, listed under Postemergence, Rate 250 g/ha, scale 0 to 10, 0 is no effect, 10 is complete control
smiles,measurement,setting,value
CC1CC1n1c(=O)on(C(=O)N(c2ccccc2)C(C)C)c1=O (centres unmarked) [Compound 370],"Plant response rating, Bedstraw","[1]; Rate 62 g/ha, scale 0 to 10 (0 no effect, 10 complete control)",0
same,Bedstraw plant response rating (0 to 10 scale),[1]; Rate 125 g/ha,3
same,Bedstraw plant response rating,"[1]; Rate 250 g/ha, scale of 0 to 10 where 0 is no effect and 10 is complete control",3
same,"Plant response rating, Blackgrass",[2]; [17],4
same,"Plant response rating, Blackgrass",[2]; [18],4
same,"Plant response rating, Blackgrass",[2]; [19],6
same,Blackgrass plant response rating (0 to 10 scale),"[2]; Preemergence, Rate 125 g/ha",8
same,Blackgrass plant response rating,"[2]; Preemergence, Rate 250 g/ha",9
same,Blackgrass plant response rating,"[2]; Preemergence, Rate 500 g/ha",10
same,Blackgrass plant response rating,"[2]; Rate 62 g/ha, Postemergence",2
same,"Plant response rating, Blackgrass",[2]; [20],5
same,"Plant response rating, B. signalgrass",[3]; [17],2
same,"Plant response rating, B. signalgrass",[3]; [18],4
same,"Plant response rating, B. signalgrass",[3]; [19],0
same,"B. signalgrass plant response rating (0 to 10 scale, 0 is no effect, 10 is complete control)","[3]; Preemergence, Rate 125 g/ha",0
same,B. signalgrass plant response rating,"[3]; Preemergence, Rate 250 g/ha",2
same,B. signalgrass plant response rating,"[3]; Preemergence, Rate 500 g/ha",5
same,B. signalgrass plant response rating,"[3]; Rate 62 g/ha, Postemergence",0
same,"Plant response rating, B. signalgrass",[3]; [20],6
same,"Plant response rating, Cocklebur",[4]; [17],0
same,"Plant response rating, Cocklebur",[4]; [18],2
same,Cocklebur plant response rating (0 to 10 scale),"[4]; Preemergence, Rate 125 g/ha",0
same,Cocklebur plant response rating,"[4]; Preemergence, Rate 250 g/ha",0
same,Cocklebur plant response rating,"[4]; Preemergence, Rate 500 g/ha",10
same,Cocklebur plant response rating,"[4]; Rate 62 g/ha, Postemergence",0
same,"Plant response rating, Cocklebur",[4]; [20],3
same,"Plant response rating, Corn",[5]; [17],0
same,"Plant response rating, Corn",[5]; [18],0
same,"Plant response rating, Corn",[5]; [19],0
same,Corn plant response rating (0 to 10 scale),"[5]; Preemergence, Rate 125 g/ha",2
same,Corn plant response rating,"[5]; Preemergence, Rate 250 g/ha",4
same,Corn plant response rating,"[5]; Preemergence, Rate 500 g/ha",9
same,Corn plant response rating,"[5]; Rate 62 g/ha, Postemergence",0
same,"Plant response rating, Corn",[5]; [20],5
same,"Plant response rating, Morningglory",[6]; [17],10
same,"Plant response rating, Morningglory",[6]; [18],10
same,"Plant response rating, Morningglory",[6]; [19],0
same,Morningglory plant response rating (0 to 10 scale),"[6]; Preemergence, Rate 125 g/ha",0
same,Morningglory plant response rating,"[6]; Preemergence, Rate 250 g/ha",2
same,Morningglory plant response rating,"[6]; Preemergence, Rate 500 g/ha",3
same,Morningglory plant response rating,"[6]; Rate 62 g/ha, Postemergence",10
same,"Plant response rating, Morningglory",[6]; [20],10
same,"Plant response rating, Redroot pigweed",[7]; [17],0
same,"Plant response rating, Redroot pigweed",[7]; [18],0
same,"Plant response rating, Redroot pigweed",[7]; [19],5
same,Redroot pigweed plant response rating (0 to 10 scale),"[7]; Preemergence, Rate 125 g/ha",7
same,Redroot pigweed plant response rating,"[7]; Preemergence, Rate 250 g/ha",10
same,Redroot pigweed plant response rating,"[7]; Preemergence, Rate 500 g/ha",10
same,Redroot pigweed plant response rating,"[7]; Rate 62 g/ha, Postemergence",0
same,"Plant response rating, Redroot pigweed",[7]; [20],3
same,"Plant response rating, Rape",[8]; [17],0
same,"Plant response rating, Rape",[8]; [18],2
same,"Plant response rating, Rape",[8]; [19],0
same,Rape plant response rating (0 to 10 scale),"[8]; Preemergence, Rate 125 g/ha",0
same,Rape plant response rating,"[8]; Preemergence, Rate 250 g/ha",6
same,Rape plant response rating,"[8]; Preemergence, Rate 500 g/ha",10
same,Rape plant response rating,"[8]; Rate 62 g/ha, Postemergence",0
same,"Plant response rating, Rape",[8]; [20],3
same,"Plant response rating, Velvetleaf",[9]; [17],0
same,"Plant response rating, Velvetleaf",[9]; [18],0
same,"Plant response rating, Velvetleaf",[9]; [19],2
same,Velvetleaf plant response rating (0 to 10 scale),"[9]; Preemergence, Rate 125 g/ha",4
same,Velvetleaf plant response rating,"[9]; Preemergence, Rate 250 g/ha",5
same,Velvetleaf plant response rating,"[9]; Preemergence, Rate 500 g/ha",6
same,Velvetleaf plant response rating,"[9]; Rate 62 g/ha, Postemergence",0
same,"Plant response rating, Velvetleaf",[9]; [20],4
same,"Plant response rating, Wheat",[10]; [17],0
same,"Plant response rating, Wheat",[10]; [18],0
same,"Plant response rating, Wheat",[10]; [19],0
same,Wheat plant response rating (0 to 10 scale),"[10]; Preemergence, Rate 125 g/ha",0
same,Wheat plant response rating,"[10]; Preemergence, Rate 250 g/ha",2
same,Wheat plant response rating,"[10]; Preemergence, Rate 500 g/ha",7
same,Wheat plant response rating,"[10]; Rate 62 g/ha, Postemergence",0
same,"Plant response rating, Wheat",[10]; [20],3
same,"Plant response rating, Wild oats",[11]; [17],0
same,"Plant response rating, Wild oats",[11]; [18],3
same,"Plant response rating, Wild oats",[11]; [19],0
same,Wild oats plant response rating (0 to 10 scale),"[11]; Preemergence, Rate 125 g/ha",0
same,Wild oats plant response rating,"[11]; Preemergence, Rate 250 g/ha",2
same,Wild oats plant response rating,"[11]; Preemergence, Rate 500 g/ha",10
same,Wild oats plant response rating,"[11]; Rate 62 g/ha, Postemergence",0
same,"Plant response rating, Wild oats",[11]; [20],5
same,"Plant response rating, Nutsedge",[12]; [17],0
same,"Plant response rating, Nutsedge",[12]; [18],0
same,"Plant response rating, Nutsedge",[12]; [19],0
same,Nutsedge plant response rating (0 to 10 scale),"[12]; Preemergence, Rate 125 g/ha",0
same,Nutsedge plant response rating,"[12]; Preemergence, Rate 250 g/ha",5
same,Nutsedge plant response rating,"[12]; Preemergence, Rate 500 g/ha",10
same,Nutsedge plant response rating,"[12]; Rate 62 g/ha, Postemergence",0
same,"Plant response rating, Nutsedge",[12]; [20],5
same,"Plant response rating, Rice",[13]; [21],0
same,Rice plant response rating,[13]; [22],0
same,"Plant response rating, Rice (0 to 10 scale, 0 is no effect, 10 is complete control)",[13]; [23],0
same,Rice plant response rating,[13]; [24],0
same,Rice plant response rating,[13]; [25],0
same,"Plant response rating, Rice",[13]; [26],2
same,Rice plant response rating,[13]; [27],0
same,"Plant response rating, Rice",[13]; [28],2
same,"Plant response rating, S. Flatsedge",[14]; [21],3
same,S. Flatsedge plant response rating,[14]; [22],2
same,"Plant response rating, S. Flatsedge (0 to 10 scale, 0 is no effect, 10 is complete control)",[14]; [23],0
same,S. Flatsedge plant response rating,[14]; [24],0
same,S. Flatsedge plant response rating,[14]; [25],0
same,"Plant response rating, S. Flatsedge",[14]; [26],7
same,S. Flatsedge plant response rating,[14]; [27],0
same,"Plant response rating, S. Flatsedge",[14]; [28],4
same,"Plant response rating, Ducksalad",[15]; [21],2
same,Ducksalad plant response rating,[15]; [22],0
same,"Plant response rating, Ducksalad (0 to 10 scale, 0 is no effect, 10 is complete control)",[15]; [23],0
same,Ducksalad plant response rating,[15]; [24],0
same,Ducksalad plant response rating,[15]; [25],0
same,"Plant response rating, Ducksalad",[15]; [26],3
same,Ducksalad plant response rating,[15]; [27],0
same,"Plant response rating, Ducksalad",[15]; [28],3
same,"Plant response rating, Barnyardgrass",[16]; [21],0
same,Barnyardgrass plant response rating,[16]; [22],0
same,"Plant response rating, Barnyardgrass (0 to 10 scale, 0 is no effect, 10 is complete control)",[16]; [23],0
same,Barnyardgrass plant response rating,[16]; [24],0
same,Barnyardgrass plant response rating,[16]; [25],0
same,"Plant response rating, Barnyardgrass",[16]; [26],2
same,Barnyardgrass plant response rating,[16]; [27],0
same,"Plant response rating, Barnyardgrass",[16]; [28],0
